# Test results: the supplement of paper PMC10307832
# Key:
# Experiment in all cases: relative viability (nuclei count vs DMSO), 5 days (fraction); higher = more cells survive
# [1] = tested on: NCI-H441
# Summary of the method: (§1)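 Values are medians from duplicate plates. Each reflects relative viability, defined as the nuclei count of treated wells over that of vehicle wells. Lung cancer cell lines in 1536-well plates were pin-tool dosed one day after seeding with one drug alone or with a fixed anchor-drug dose plus five library-drug doses (not always all listed) in √10 steps, then fixed, stained and imaged at 4× after 5 days.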
# [2] = tested on: HCC-366
# Summary of the method: as §1
# [3] = tested on: NCI-H460
# Summary of the method: as §1
# [4] = tested on: HCC-44
# Summary of the method: as §1
# [5] = tested on: LCLC-103H
# Summary of the method: as §1
# [6] = tested on: NCI-H1734
# Summary of the method: as §1
# [7] = tested on: A-427
# Summary of the method: as §1
# [8] = tested on: NCI-H650
# Summary of the method: as §1
# [9] = tested on: HARA
# Summary of the method: as §1
# [10] = tested on: LCLC-97TM1
# Summary of the method: as §1
# [11] = tested on: LOU-NH91
# Summary of the method: as §1
# [12] = tested on: 201T
# Summary of the method: as §1
# [13] = tested on: NCI-H1993
# Summary of the method: as §1
# [14] = tested on: HCC-78
# Summary of the method: as §1
# [15] = tested on: NCI-H2126
# Summary of the method: as §1
# [16] = tested on: HCC-15
# Summary of the method: as §1
# [17] = tested on: RERF-LC-KJ
# Summary of the method: as §1
# [18] = tested on: ChaGo-K-1
# Summary of the method: as §1
smiles,measurement,setting,value
O=C(O)CCCCC(CCSCc1ccccc1)SCc1ccccc1 (configuration not stated) [CPI-613] + NC(=O)Nc1cc(-c2cccc(F)c2)sc1C(=O)N[C@H]1CCCNC1 [AZD7762] (partner 0.2 µM),relative viability,[1]; first compound 5 µM,1.09
same,relative viability,[1]; first compound 15.81 µM,0.803
same,relative viability,[1]; first compound 50 µM,1.39
same,relative viability,[1]; first compound 158.11 µM,0.788
same,relative viability,[1]; first compound 500 µM,0.0052
same,relative viability,[2]; first compound 5 µM,0.256
same,relative viability,[2]; first compound 15.81 µM,0.203
same,relative viability,[2]; first compound 50 µM,0.282
same,relative viability,[2]; first compound 158.11 µM,0.138
same,relative viability,[2]; first compound 500 µM,0.0061
same,relative viability,[3]; first compound 5 µM,0.633
same,relative viability,[3]; first compound 15.81 µM,0.529
same,relative viability,[3]; first compound 50 µM,0.613
same,relative viability,[3]; first compound 158.11 µM,0.418
same,relative viability,[3]; first compound 500 µM,0.291
same,relative viability,[4]; first compound 5 µM,1.03
same,relative viability,[4]; first compound 15.81 µM,0.966
same,relative viability,[4]; first compound 50 µM,1.01
same,relative viability,[4]; first compound 158.11 µM,0.967
same,relative viability,[4]; first compound 500 µM,0.66
same,relative viability,[5]; first compound 5 µM,0.738
same,relative viability,[5]; first compound 15.81 µM,0.764
same,relative viability,[5]; first compound 50 µM,0.755
same,relative viability,[5]; first compound 158.11 µM,0.65
same,relative viability,[5]; first compound 500 µM,0.501
same,relative viability,[6]; first compound 5 µM,0.505
same,relative viability,[6]; first compound 15.81 µM,0.482
same,relative viability,[6]; first compound 50 µM,0.413
same,relative viability,[6]; first compound 158.11 µM,0.272
same,relative viability,[6]; first compound 500 µM,0.0982
same,relative viability,[7]; first compound 5 µM,0.66
same,relative viability,[7]; first compound 15.81 µM,0.642
same,relative viability,[7]; first compound 50 µM,0.661
same,relative viability,[7]; first compound 158.11 µM,0.326
same,relative viability,[7]; first compound 500 µM,0.173
same,relative viability,[8]; first compound 5 µM,1.01
same,relative viability,[8]; first compound 15.81 µM,0.925
same,relative viability,[8]; first compound 50 µM,1.03
same,relative viability,[8]; first compound 158.11 µM,0.49
same,relative viability,[8]; first compound 500 µM,0.655
same,relative viability,[9]; first compound 5 µM,0.37
same,relative viability,[9]; first compound 15.81 µM,0.0178
same,relative viability,[9]; first compound 50 µM,0.302
same,relative viability,[9]; first compound 158.11 µM,0.204
same,relative viability,[9]; first compound 500 µM,0.041
same,relative viability,[10]; first compound 5 µM,0.293
same,relative viability,[10]; first compound 15.81 µM,0.225
same,relative viability,[10]; first compound 50 µM,0.229
same,relative viability,[10]; first compound 158.11 µM,0.125
same,relative viability,[10]; first compound 500 µM,0.0538
same,relative viability,[11]; first compound 5 µM,0.74
same,relative viability,[11]; first compound 15.81 µM,0.7
same,relative viability,[11]; first compound 50 µM,0.753
same,relative viability,[11]; first compound 158.11 µM,0.633
same,relative viability,[11]; first compound 500 µM,0.241
same,relative viability,[12]; first compound 5 µM,0.581
same,relative viability,[12]; first compound 15.81 µM,0.62
same,relative viability,[12]; first compound 50 µM,0.66
same,relative viability,[12]; first compound 158.11 µM,0.318
same,relative viability,[12]; first compound 500 µM,0.564
same,relative viability,[13]; first compound 5 µM,0.743
same,relative viability,[13]; first compound 15.81 µM,0.688
same,relative viability,[13]; first compound 50 µM,0.65
same,relative viability,[13]; first compound 158.11 µM,0.537
same,relative viability,[13]; first compound 500 µM,0.286
same,relative viability,[14]; first compound 15.81 µM,0.606
same,relative viability,[14]; first compound 50 µM,0.674
same,relative viability,[14]; first compound 158.11 µM,0.543
same,relative viability,[14]; first compound 500 µM,0.738
same,relative viability,[15]; first compound 5 µM,0.935
same,relative viability,[15]; first compound 15.81 µM,0.966
same,relative viability,[15]; first compound 50 µM,0.991
same,relative viability,[15]; first compound 158.11 µM,0.348
same,relative viability,[15]; first compound 500 µM,0.788
same,relative viability,[16]; first compound 5 µM,1.21
same,relative viability,[16]; first compound 15.81 µM,1.04
same,relative viability,[16]; first compound 50 µM,1.14
same,relative viability,[16]; first compound 158.11 µM,0.819
same,relative viability,[16]; first compound 500 µM,0.476
same,relative viability,[17]; first compound 5 µM,0.98
same,relative viability,[17]; first compound 15.81 µM,0.917
same,relative viability,[17]; first compound 50 µM,1
same,relative viability,[17]; first compound 158.11 µM,0.94
same,relative viability,[17]; first compound 500 µM,0.921
same,relative viability,[18]; first compound 5 µM,0.827
same,relative viability,[18]; first compound 15.81 µM,0.778
same,relative viability,[18]; first compound 50 µM,0.85
same,relative viability,[18]; first compound 158.11 µM,0.536
same,relative viability,[18]; first compound 500 µM,0.436
O=c1[nH]c2ccccc2n1C1CCN(CCCC(c2ccc(F)cc2)c2ccc(F)cc2)CC1 [Pimozide] + NC(=O)Nc1cc(-c2cccc(F)c2)sc1C(=O)N[C@H]1CCCNC1 [AZD7762] (partner 0.2 µM),relative viability,[1]; first compound 0.08 µM,1.32
same,relative viability,[1]; first compound 0.253 µM,0.806
same,relative viability,[1]; first compound 0.8 µM,1.26
same,relative viability,[1]; first compound 2.53 µM,1.09
same,relative viability,[1]; first compound 8 µM,1.04
same,relative viability,[2]; first compound 0.08 µM,0.263
same,relative viability,[2]; first compound 0.253 µM,0.258
same,relative viability,[2]; first compound 0.8 µM,0.211
same,relative viability,[2]; first compound 2.53 µM,0.246
same,relative viability,[2]; first compound 8 µM,0.253
same,relative viability,[3]; first compound 0.08 µM,0.615
same,relative viability,[3]; first compound 0.253 µM,0.539
same,relative viability,[3]; first compound 0.8 µM,0.625
same,relative viability,[3]; first compound 2.53 µM,0.693
same,relative viability,[3]; first compound 8 µM,0.549
same,relative viability,[4]; first compound 0.08 µM,1.01
same,relative viability,[4]; first compound 0.253 µM,0.992
same,relative viability,[4]; first compound 0.8 µM,0.849
same,relative viability,[4]; first compound 2.53 µM,0.98
same,relative viability,[4]; first compound 8 µM,0.971
same,relative viability,[5]; first compound 0.08 µM,0.743
same,relative viability,[5]; first compound 0.253 µM,0.778
same,relative viability,[5]; first compound 0.8 µM,0.733
same,relative viability,[5]; first compound 2.53 µM,0.802
same,relative viability,[5]; first compound 8 µM,0.686
same,relative viability,[6]; first compound 0.08 µM,0.573
same,relative viability,[6]; first compound 0.253 µM,0.558
same,relative viability,[6]; first compound 0.8 µM,0.487
same,relative viability,[6]; first compound 2.53 µM,0.511
same,relative viability,[6]; first compound 8 µM,0.485
same,relative viability,[7]; first compound 0.08 µM,0.711
same,relative viability,[7]; first compound 0.253 µM,0.703
same,relative viability,[7]; first compound 0.8 µM,0.764
same,relative viability,[7]; first compound 2.53 µM,0.637
same,relative viability,[7]; first compound 8 µM,0.676
same,relative viability,[8]; first compound 0.08 µM,1.17
same,relative viability,[8]; first compound 0.253 µM,0.983
same,relative viability,[8]; first compound 0.8 µM,0.831
same,relative viability,[8]; first compound 2.53 µM,0.909
same,relative viability,[8]; first compound 8 µM,0.693
same,relative viability,[9]; first compound 0.08 µM,0.21
same,relative viability,[9]; first compound 0.253 µM,0.48
same,relative viability,[9]; first compound 0.8 µM,0.318
same,relative viability,[9]; first compound 2.53 µM,0.197
same,relative viability,[9]; first compound 8 µM,0.37
same,relative viability,[10]; first compound 0.08 µM,0.363
same,relative viability,[10]; first compound 0.253 µM,0.23
same,relative viability,[10]; first compound 0.8 µM,0.171
same,relative viability,[10]; first compound 2.53 µM,0.246
same,relative viability,[10]; first compound 8 µM,0.376
same,relative viability,[11]; first compound 0.08 µM,0.713
same,relative viability,[11]; first compound 0.253 µM,0.746
same,relative viability,[11]; first compound 0.8 µM,0.776
same,relative viability,[11]; first compound 2.53 µM,0.778
same,relative viability,[11]; first compound 8 µM,0.778
same,relative viability,[12]; first compound 0.08 µM,0.602
same,relative viability,[12]; first compound 0.253 µM,0.615
same,relative viability,[12]; first compound 0.8 µM,0.541
same,relative viability,[12]; first compound 2.53 µM,0.537
same,relative viability,[12]; first compound 8 µM,0.652
same,relative viability,[13]; first compound 0.08 µM,0.701
same,relative viability,[13]; first compound 0.253 µM,0.752
same,relative viability,[13]; first compound 0.8 µM,0.544
same,relative viability,[13]; first compound 2.53 µM,0.675
same,relative viability,[13]; first compound 8 µM,0.729
same,relative viability,[14]; first compound 0.08 µM,0.547
same,relative viability,[14]; first compound 0.8 µM,0.607
same,relative viability,[14]; first compound 2.53 µM,0.55
same,relative viability,[14]; first compound 8 µM,0.6
same,relative viability,[15]; first compound 0.08 µM,1.02
same,relative viability,[15]; first compound 0.253 µM,1.06
same,relative viability,[15]; first compound 0.8 µM,1.01
same,relative viability,[15]; first compound 2.53 µM,1.02
same,relative viability,[15]; first compound 8 µM,1
same,relative viability,[16]; first compound 0.08 µM,1.36
same,relative viability,[16]; first compound 0.253 µM,0.545
same,relative viability,[16]; first compound 2.53 µM,1.2
same,relative viability,[16]; first compound 8 µM,1.16
same,relative viability,[17]; first compound 0.08 µM,0.91
same,relative viability,[17]; first compound 0.253 µM,0.866
same,relative viability,[17]; first compound 0.8 µM,0.806
same,relative viability,[17]; first compound 2.53 µM,0.757
same,relative viability,[17]; first compound 8 µM,0.81
same,relative viability,[18]; first compound 0.08 µM,0.914
same,relative viability,[18]; first compound 0.253 µM,0.871
same,relative viability,[18]; first compound 0.8 µM,0.88
same,relative viability,[18]; first compound 2.53 µM,0.803
same,relative viability,[18]; first compound 8 µM,0.824
